# Test system: HCV replicon
# Assay: HCV replicon replication assay (NPT ELISA) in Huh-7 replicon-containing cells
# Assay type: cell-based
# Conditions: Hepatitis C virus, 72 h; HCV replicon in Huh-7 cells, three days incubation; read-out: EC50
# Summary of the method: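 Huh-7 cells carrying a bicistronic HCV replicon (HCV-IRES-neo, EMCV-IRES-driven NS3–NS5B, 3′-NTR) were seeded at 6000-7500 cells/well, grown 24 h to 60-70% confluence, then treated with graded compound concentrations. Replication was read as NPT level by capture ELISA (rabbit anti-NPTII, Eu-N1 secondary); interferon alpha served as positive control.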
row,SMILES,EC50
1,"C=C[C@@H]1C[C@]1(NC(=O)[C@@H]1C[C@@H](Oc2cc(-c3ccccc3)nc3cc(OC)ccc23)CN1C(=O)[C@@H](CC(=O)N1CCCCC1)C(C)(C)C)C(=O)O [Compound 210, (1R)-1-((2S,4R)-1-((S)-2-tert-butyl-4-oxo-4-(piperidin-1-yl)butanoyl)-4-(7-methoxy-2-phenylquinolin-4-yloxy)pyrrolidine-2-carboxamido)-2-vinylcyclopropane-carboxylic acid]",> 10000 nM
2,"C=C[C@@H]1C[C@]1(NC(=O)[C@@H]1C[C@@H](Oc2cc(-c3ccccc3)nc3cc(OC)ccc23)CN1C(=O)[C@@H](CC(=O)N1CCCC[C@H]1C(=O)Nc1nccs1)C(C)(C)C)C(=O)NS(=O)(=O)C1CC1 [Compound 211, (2S)-1-((3S)-3-((2S,4R)-2-((1R)-1-(cyclopropyl-sulfonylcarbamoyl)-2-vinylcyclopropyl-carbamoyl)-4-(7-methoxy-2-phenylquinolin-4-yloxy)pyrrolidine-1-carbonyl)-4,4-dimethylpentanoyl)-N-(thiazol-2-yl)piperidine-2-carboxamide]",< 1000 nM
3,"C=C[C@@H]1C[C@]1(NC(=O)[C@@H]1C[C@@H](Oc2cc(-c3ccccc3)nc3cc(OC)ccc23)CN1C(=O)[C@@H](CC(=O)N1CCCC1C(=O)Nc1nccs1)C(C)(C)C)C(=O)NS(=O)(=O)C1CC1 (stereo partly drawn) [Compound 212, (2S,4R)-1-((S)-2-tert-butyl-4-oxo-4-((S)-2-(thiazol-2-ylcarbamoyl)pyr-rolidin-1-yl)butanoyl)-N-((1R)-1-(cyclo-propylsulfonyl-carbamoyl)-2-vinylcyclopropyl)-4-(7-methoxy-2-phenylquinolin-4-yloxy)pyrrolidine-2-carboxamide]",< 1000 nM
4,"C=C[C@@H]1C[C@]1(NC(=O)[C@H]1C[C@@H](Oc2cc(-c3ccccc3)nc3cc(OC)ccc23)CN1C(=O)[C@@H](CC(=O)N1CCCCC1)C(C)(C)C)C(=O)NS(=O)(=O)C1CC1 [Compound 213, (2R,4R)-1-((S)-2-tert-butyl-4-oxo-4-(piperidin-1-yl)butanoyl)-N-((1R)-1-(cyclo-propylsulfonyl-carbamoyl)-2-vinyl-cyclopropyl)-4-(7-methoxy-2-phenylquinolin-4-yloxy)pyrrolidine-2-carboxamide]",< 1000 nM
5,"C=C[C@@H]1C[C@]1(NC(=O)[C@@H]1C[C@@H](Oc2cc(-c3ccccn3)nc3cc(OC)ccc23)CN1C(=O)[C@@H](CC(=O)N1CCC(F)(F)C1)C(C)(C)C)C(=O)NS(=O)(=O)C1CC1 [Compound 214, (2S,4R)-1-((S)-2-tert-butyl-4-(3,3-difluoropyrrolidin-1-yl)-4-oxobutanoyl)-N-((1R)-1-(cyclopropyl-sulfonylcarbamoyl)-2-vinylcyclopropyl)-4-(7-methoxy-2-(pyridin-2-yl)quinolin-4-yloxy)pyrrolidine-2-carboxamide]",< 1000 nM
6,"C=C[C@@H]1C[C@]1(NC(=O)[C@@H]1C[C@@H](Oc2cc(-c3ccccn3)nc3cc(OC)ccc23)CN1C(=O)[C@@H](CC(=O)N1CCC(C(F)(F)F)CC1)C(C)(C)C)C(=O)NS(=O)(=O)C1CC1 [Compound 215, (2S,4R)-1-((S)-2-tert-butyl-4-oxo-4-(4-(trifluoro-methyl)piperidin-1-yl)butanoyl)-N-((1R)-1-(cyclopropyl-sulfonylcarbamoyl)-2-vinylcyclopropyl)-4-(7-methoxy-2-(pyridin-2-yl)quinolin-4-yloxy)pyrrolidine-2-carboxamide]",< 1000 nM
7,"C=C[C@@H]1C[C@]1(NC(=O)[C@@H]1C[C@@H](Oc2cc(-c3ccccn3)nc3cc(OC)ccc23)CN1C(=O)[C@@H](CC(=O)N1CCC(F)(F)CC1)C(C)(C)C)C(=O)NS(=O)(=O)C1CC1 [Compound 216, (2S,4R)-1-((S)-2-tert-butyl-4-(4,4-difluoropiperidin-1-yl)-4-oxobutanoyl)-N-((1R)-1-(cyclo-propylsulfonyl-carbamoyl)-2-vinylcyclopropyl)-4-(7-methoxy-2-(pyridin-2-yl)quinolin-4-yloxy)pyrrolidine-2-carboxamide]",< 1000 nM
8,"C=C[C@@H]1C[C@]1(NC(=O)[C@@H]1C[C@@H](Oc2cc(-c3ccccn3)nc3cc(OC)ccc23)CN1C(=O)[C@@H](CC(=O)N1CCCC(F)(F)C1)C(C)(C)C)C(=O)NS(=O)(=O)C1CC1 [Compound 217, (2S,4R)-1-((S)-2-tert-butyl-4-(3,3-difluoropiperidin-1-yl)-4-oxobutanoyl)-N-((1R)-1-(cyclopropyl-sulfonylcarbamoyl)-2-vinylcyclopropyl)-4-(7-methoxy-2-(pyridin-2-yl)quinolin-4-yloxy)pyrrolidine-2-carboxamide]",< 1000 nM
9,"C=C[C@@H]1C[C@]1(NC(=O)[C@@H]1C[C@@H](Oc2cc(-c3ccccn3)nc3cc(OC)ccc23)CN1C(=O)[C@@H](CC(=O)N1CCC(F)CC1)C(C)(C)C)C(=O)NS(=O)(=O)C1CC1 [Compound 218, (2S,4R)-1-((S)-2-tert-butyl-4-(4-fluoropiperidin-1-yl)-4-oxobutanoyl)-N-((1R)-1-(cyclo-propylsulfonyl-carbamoyl)-2-vinylcyclopropyl)-4-(7-methoxy-2-(pyridin-2-yl)quinolin-4-yloxy)pyrrolidine-2-carboxamide]",< 1000 nM
10,"C=C[C@@H]1C[C@]1(NC(=O)[C@@H]1C[C@@H](Oc2cc(-c3ccccn3)nc3cc(OC)ccc23)CN1C(=O)[C@@H](CC(=O)N1CC2CCC1C2)C(C)(C)C)C(=O)NS(=O)(=O)C1CC1 (stereo partly drawn) [Compound 220, (2S,4R)-1-((2S)-2-(2-(2-azabi-cyclo[2.2.1]heptan-2-yl)-2-oxoethyl)-3,3-dimethylbutanoyl)-N-((1R)-1-(cyclo-propylsulfonyl-carbamoyl)-2-vinylcyclopropyl)-4-(7-methoxy-2-(pyridin-2-yl)quinolin-4-yloxy)pyrrolidine-2-carboxamide]",< 1000 nM
11,C=C[C@@H]1C[C@]1(NC(=O)[C@@H]1C[C@@H](Oc2cc(-c3ccccn3)nc3cc(OC)ccc23)CN1C(=O)[C@@H](CC(=O)N1CC2CC3CC(C2)CC1C3)C(C)(C)C)C(=O)NS(=O)(=O)C1CC1 [Compound 221],> 10000 nM
12,"C=C[C@@H]1C[C@]1(NC(=O)[C@@H]1C[C@@H](Oc2cc(-c3ccccc3)nc3cc(OC)ccc23)CN1C(=O)[C@@H](CC(=O)N1CCC1)C(C)(C)C)C(=O)NS(=O)(=O)C1CC1 [Compound 222, (2S,4R)-1-((S)-4-(azetidin-1-yl)-2-tert-butyl-4-oxobutanoyl)-N-((1R)-1-(cyclopropyl-sulfonylcarbamoyl)-2-vinylcyclopropyl)-4-(7-methoxy-2-phenylquinolin-4-yloxy)pyrrolidine-2-carboxamide]",< 1000 nM
13,"C=C[C@@H]1C[C@]1(NC(=O)[C@@H]1C[C@@H](Oc2cc(-c3ccccc3)nc3cc(OC)ccc23)CN1C(=O)[C@@H](CC(=O)N1CC(F)(F)C1)C(C)(C)C)C(=O)NS(=O)(=O)C1CC1 [Compound 223, (2S,4R)-1-((S)-2-tert-butyl-4-(3,3-difluoroazetidin-1-yl)-4-oxobutanoyl)-N-((1R)-1-(cyclopropyl-sulfonylcarbamoyl)-2-vinylcyclopropyl)-4-(7-methoxy-2-phenylquinolin-4-yloxy)pyrrolidine-2-carboxamide]",< 1000 nM

# Source: US9133115B2 (ACHILLION PHARMACEUTICALS, INC., priority 2008, dated 2015)
